Data as given in patent US9255100B2 (BAYER INTELLECTUAL PROPERTY GMBH, priority 2010, dated 2016).

These compounds were tested against T1, N-terminally GST-tagged human full length recombinant Mps-1 kinase (Homo sapiens, UniProt P33981) (assay: Mps-1 kinase assay (TR-FRET)). Conditions: Mps1 IC50 [nM], 10 μM ATP, 1 μM peptide substrate, 60 min at 22° C.
T1 construct: N-terminally GST-tagged human full length recombinant Mps-1 kinase; purchased Invitrogen, Karslruhe, Germany PV4071
T1 sequence (P33981 1-857): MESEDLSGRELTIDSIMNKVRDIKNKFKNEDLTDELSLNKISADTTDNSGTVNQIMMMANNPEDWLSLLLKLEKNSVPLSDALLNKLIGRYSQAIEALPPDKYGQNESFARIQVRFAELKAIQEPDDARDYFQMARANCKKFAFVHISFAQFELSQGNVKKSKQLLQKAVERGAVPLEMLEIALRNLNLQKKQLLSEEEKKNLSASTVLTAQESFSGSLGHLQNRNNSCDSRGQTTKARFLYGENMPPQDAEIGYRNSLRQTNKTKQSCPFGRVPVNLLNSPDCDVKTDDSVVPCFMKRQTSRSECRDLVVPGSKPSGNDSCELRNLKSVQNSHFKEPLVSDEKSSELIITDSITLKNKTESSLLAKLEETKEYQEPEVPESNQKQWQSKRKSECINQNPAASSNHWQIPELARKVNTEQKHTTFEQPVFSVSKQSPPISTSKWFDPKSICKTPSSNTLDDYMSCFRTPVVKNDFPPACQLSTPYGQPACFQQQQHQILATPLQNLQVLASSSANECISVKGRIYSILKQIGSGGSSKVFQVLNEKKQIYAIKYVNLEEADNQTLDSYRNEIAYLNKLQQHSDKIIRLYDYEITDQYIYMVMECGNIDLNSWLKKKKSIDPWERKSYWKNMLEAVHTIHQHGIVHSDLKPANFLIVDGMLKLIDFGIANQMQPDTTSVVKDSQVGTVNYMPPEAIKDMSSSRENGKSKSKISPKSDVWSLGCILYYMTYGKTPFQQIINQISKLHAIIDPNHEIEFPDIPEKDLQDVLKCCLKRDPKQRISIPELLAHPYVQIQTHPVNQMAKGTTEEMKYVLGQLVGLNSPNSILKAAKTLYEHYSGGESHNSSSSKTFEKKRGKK
Format: biochemical
Summary of the method: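 Compounds were tested against recombinant full-length Mps-1 bearing an N-terminal GST tag, about 1 nM final, with a biotinylated amide-capped peptide as substrate. Detection reagents were then bound for 1 h at 22° C and the product read by TR-FRET.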
Work on `Cc1cc(-c2cnc3c(NCCn4cccn4)cc(Oc4cccc(F)c4)nn23)ccc1C(=O)NC1CC1` [Example 515, N-cyclopropyl-4-[6-(3-fluoro-phenoxy)-8-{[2-(1H-pyrazol-1-yl)ethyl]amino}imidazo[1,2-b]pyridazin-3-yl]-2-methyl-benzamide] yielded an IC50 of 0.4 nM.
In the case of `CNc1ccccc1Oc1cc(NCCC(F)(F)F)c2ncc(-c3ccc(C(=O)NC4CC4)c(C)c3)n2n1` [Example 389, N-cyclopropyl-2-methyl-4-{6-[2-(methylamino)phenoxy]-8-[(3,3,3-trifluoropropyl)amino]imidazo[1,2-b]pyridazin-3-yl}benzamide], the IC50 is reported as 0.1 nM.
For `Cc1cc(-c2cnc3c(NCC(C)(C)N)cc(Oc4cccnc4)nn23)ccc1C(=O)NC1CC1` [Example 522, 4-{8-[(2-amino-2-methyl-propyl)amino]-6-(pyridin-3-yloxy)imidazo[1,2-b]pyridazin-3-yl}-N-cyclopropyl-2-methylbenzamide], the IC50 was 1.8 nM.
`Cc1cc(-c2cnc3c(NCC(C)(C)O)cc(-c4ccccc4)nn23)ccc1C(=O)NC1CC1` [Example 12, N-cyclopropyl-4-{8-[(2-hydroxy-2-methylpropyl)amino]-6-phenylimidazo[1,2-b]pyridazin-3-yl}-2-methylbenzamide] gave an IC50 of 3.2 nM.
With `COc1cc(C(=O)NC2CC2)ccc1-c1cnc2c(NCC(C)(C)O)cc(-c3ccnn3C)nn12` [Example 50, N-cyclopropyl-4-{8-[(2-hydroxy-2-methylpropyl)amino]-6-(1-methyl-1H-pyrazol-5-yl)imidazo[1,2-b]pyridazin-3-yl}-3-methoxybenzamide] the IC50 was 84.8 nM.
`Cc1cc(-c2cnc3c(NCC(C)(C)O)cc(Nc4ccc(F)nc4)nn23)ccc1C(=O)NC1CC1` [Example 406, N-cyclopropyl-4-{6-[(6-fluoropyridin-3-yl)amino]-8-[(2-hydroxy-2-methylpropyl)amino]imidazo[1,2-b]pyridazin-3-yl}-2-methylbenzamide] showed an IC50 of 0.4 nM.
`CC(C)CNc1cc(-c2cncc3ccccc23)nn2c(-c3ccc(C(=O)NC4CC4)cc3)cnc12` [Example 115, N-cyclopropyl-4-{6-(isoquinolin-4-yl)-8-[(2-methylpropyl)amino]imidazo[1,2-b]pyridazin-3-yl}benzamide] gave an IC50 of 27.5 nM.
With `Cc1cc(-c2cnc3c(NCC(C)(C)N)cc(-c4ccc(F)cc4)nn23)ccc1C(=O)NC1CC1` [Example 57, 4-{8-[(2-Amino-2-methylpropyl)amino]-6-(4-fluorophenyl)imidazo[1,2-b]pyridazin-3-yl}-N-cyclopropyl-2-methylbenzamide] the IC50 was 4.4 nM.
For `Cc1cc(-c2cnc3c(NCCC(F)(F)F)cc(Oc4cncc(F)c4)nn23)ccc1C(=O)NC1CC1` [Example 464, N-cyclopropyl-4-{6-[(5-fluoropyridin-3-yl)oxy]-8-[(3,3,3-trifluoropropyl)amino]imidazo[1,2-b]pyridazin-3-yl}-2-methylbenzamide], the IC50 was 0.1 nM.
`Cc1cc(Nc2cc(NCC(C)(C)O)c3ncc(-c4ccc(C(=O)NC5CC5)c(C)c4)n3n2)ccc1F` [Example 382, N-cyclopropyl-4-{6-[(4-fluoro-3-methylphenyl)amino]-8-[(2-hydroxy-2-methylpropyl)amino]imidazo[1,2-b]pyridazin-3-yl}-2-methylbenzamide] gave an IC50 of 1.2 nM.
In the case of `COC(=O)c1cc(F)ccc1-c1cc(NCC(C)(C)O)c2ncc(-c3ccc(C(=O)NC4CC4)c(C)c3)n2n1` [Example 279, 2-{3-[4-(cyclopropylcarbamoyl)-3-methylphenyl]-8-[(2-hydroxy-2-methylpropyl)amino]imidazo[1,2-b]pyridazin-6-yl}-5-fluoro-benzoic acid methyl ester], the IC50 is reported as 148 nM.
With `Cc1cc(-c2cnc3c(NCC(C)(C)O)cc(Nc4ccccn4)nn23)ccc1C(=O)NC1CC1` [Example 357, N-cyclopropyl-4-{8-[(2-hydroxy-2-methylpropyl)amino]-6-(pyridin-2-ylamino)imidazo[1,2-b]pyridazin-3-yl}-2-methylbenzamide] the IC50 was 4.4 nM.
`CC(C)CNc1cc(-c2cc3ccccc3o2)nn2c(-c3ccc(C(=O)NC4CC4)cc3)cnc12` [Example 127, 4-{6-(1-Benzofuran-2-yl)-8-[(2-methylpropyl)amino]imidazo[1,2-b]pyridazin-3-yl}-N-cyclopropylbenzamide] gave an IC50 of 40 nM.
With `CC(C)CNc1cc(Cl)nn2c(-c3ccc4c(NC5CC5)noc4c3)cnc12` [Example 183, 6-Chloro-3-[3-(cyclopropylamino)-1,2-benzoxazol-6-yl]-N-(2-methylpropyl)imidazo[1,2-b] pyridazin-8-amine] the IC50 was 290 nM.
Work on `Cc1cc(-c2cnc3c(NCC4CCS(=O)(=O)CC4)cc(Sc4ccccc4)nn23)ccc1C(=O)NC1CC1` [Example 302, N-cyclopropyl-4-[8-{[(1,1-dioxidotetrahydro-2H-thiopyran-4-yl)methyl]amino}-6-(phenylsulfanyl)imidazo[1,2-b]pyridazin-3-yl]-2-methylbenzamide] yielded an IC50 of 0.3 nM.
With `COc1ccc(Nc2cc(NCC(C)(C)O)c3ncc(-c4ccc(C(=O)NC5CC5)c(C)c4)n3n2)cc1` [Example 354, N-cyclopropyl-4-{8-[(2-hydroxy-2-methylpropyl)amino]-6-[(4-methoxyphenyl)amino]imidazo[1,2-b]pyridazin-3-yl}-2-methylbenzamide] the IC50 was 0.4 nM.
Work on `Cc1cc(-c2cnc3c(NCC4CCSCC4)cc(Sc4ccccc4O)nn23)ccc1C(=O)NC1CC1` [Example 289, N-cyclopropyl-4-{6-[(2-hydroxyphenyl)sulfanyl]-8-[(tetrahydro-2H-thiopyran-4-ylmethyl)amino]imidazo[1,2-b]pyridazin-3-yl}-2-methylbenzamide] yielded an IC50 of 0.2 nM.
Compound `Cc1ccc(Sc2cc(NCC(C)(C)O)c3ncc(-c4ccc(C(=O)NC5CC5)c(C)c4)n3n2)cc1F` [Example 66, N-cyclopropyl-4-{6-[(3-fluoro-4-methylphenyl)sulfanyl]-8-[(2-hydroxy-2-methylpropyl)amino]imidazo[1,2-b]pyridazin-3-yl}-2-methylbenzamide] has an IC50 of 0.2 nM.
With `CNC(=O)c1ccc(-c2cnc3c(NCc4cccs4)cc(Cl)nn23)cc1Cl` [Example 186, 2-Chloro-4-{6-chloro-8-[(thiophen-2-ylmethyl)amino]imidazo[1,2-b]pyridazin-3-yl}-N-methylbenzamide] the IC50 was 338 nM.
Work on `Cc1cc(-c2cnc3c(NCC(C)(C)N)cc(-c4ccnn4C)nn23)ccc1C(=O)NC1CC1` [Example 58, 4-{8-[(2-Amino-2-methylpropyl)amino]-6-(1-methyl-1H-pyrazol-5-yl)imidazo[1,2-b]pyridazin-3-yl}-N-cyclopropyl-2-methylbenzamide] yielded an IC50 of 20.5 nM.
`Cc1cc(-c2cnc3c(NCCC(F)(F)F)cc(Sc4ccc(F)cc4)nn23)ccc1C(=O)NC1CC1` [Example 250, N-cyclopropyl-4-{6-[(4-fluorophenyl)sulfanyl]-8-[(3,3,3-trifluoropropyl)amino]imidazo[1,2-b]pyridazin-3-yl}-2-methylbenzamide] was tested, and the IC50 was 0.3 nM.
`COc1cc(Nc2cc(NCCC(F)(F)F)c3ncc(-c4ccc(C(=O)NC5CC5)c(C)c4)n3n2)ccc1F` [Example 422, N-cyclopropyl-4-{6-[(4-fluoro-3-methoxyphenyl)amino]-8-[(3,3,3-trifluoropropyl)amino]imidazo[1,2-b]pyridazin-3-yl}-2-methylbenzamide] showed an IC50 of 0.4 nM.
`Cc1cccc(Nc2cc(NCCC(F)(F)F)c3ncc(-c4ccc(C(=O)NC5CC5)c(C)c4)n3n2)c1` [Example 423, N-cyclopropyl-2-methyl-4-{6-[(3-methylphenyl)amino]-8-[(3,3,3-trifluoropropyl)amino]imidazo[1,2-b]pyridazin-3-yl}benzamide] gave an IC50 of 0.3 nM.
Work on `Cc1cc(-c2cnc3c(NCC(C)(C)O)cc(Sc4ccncc4)nn23)ccc1C(=O)NC1CC1` [Example 333, N-cyclopropl-4-{8-[(2-hydroxy-2-methylpropyl)amino]-6-(pyridin-4-yl-sulfanyl)imidazo[1,2-b]pyridazin-3-yl}-2-methyl-benzamide] yielded an IC50 of 9.5 nM.
Compound `CC(C)CNc1cc(-c2ccncc2)nn2c(-c3ccc(C(=S)NC4CC4)cc3)cnc12` [Example 13, N-cyclopropyl-4-[8-(isobutylamino)-6-(pyridin-4-yl)imidazo[1,2-b]pyridazin-3-yl]benzenecarbothioamide] has an IC50 of 1.8 nM.
`CCOc1ccc(-c2cc(NCC(C)(C)O)c3ncc(-c4ccc(C(=O)NC5CC5)c(C)c4)n3n2)cn1` [Example 158, N-cyclopropyl-4-{6-(6-ethoxypyridin-3-yl)-8-[(2-hydroxy-2-methylpropyl)amino]imidazo[1,2-b]pyridazin-3-yl}-2-methylbenzamide] was tested, and the IC50 was 6.4 nM.
